From patent EP2934524B1, “PENETHAMATE VETERINARY INJECTABLE FORMULATIONS” (Alleva Animal Health Limited, priority 2012, dated 2014)

Key:
[1] = Estimated solubility and discolouration of penethamate in organic solvents; format: physicochemical; conditions: Solketal, propylene glycol, glycerol formal and DGMEE
From the text: Solubility of penethamate was estimated at the concentrations of 0.2% w/w and 1.0% w/w, in the following solvents: glycerine, Solketal, polyethylene glycol 200 (PEG 200), diethylene glycol butyl ether (DGBE), propylene glycol (PG), glycofural, diethylene glycol monomethyl ether (DGME), diethylene glycol methyl ethyl ether (DGMEE), dimethyl isosorbide (DMI), 2-pyrrolidone (2-pyrol), N-methyl-2-pyrrolidone (NMP), dimethyl acetamide (DMA), glycerol formal (GF), benzyl alcohol (BA), ethyl lactate and dimethyl sulfoxide (DMSO).

[2] = following injection, equivalent dose; cited from earlier work

CCN(CC)CCOC(=O)[C@@H]1N2C(=O)[C@@H](NC(=O)Cc3ccccc3)[C@H]2SC1(C)C [penethamate hydriodide, 2-(diethylamino)ethyl (2S,5R,6R)-3,3-dimethyl-7-oxo-6-[(2-phenylacetyl)amino]-4-thia-1-azabicyclo[3.2.0] heptane-2-carboxylate]
discolouration in organic solvent ([1]; 0.2% w/w and 1.0% w/w in glycerine): no discolouration
solubility in organic solvent ([1]; estimated at 0.2% w/w and 1.0% w/w in glycerine): minimal solubility
levels of penicillin in the milk relative to other benzyl-penicillin preparations [2]: about 10 times higher
